Values after ≈ are worked out from the molar mass of the structure shown.
Assays:
Test in all cases: Broth microdilution MIC in CAMHB
Assay type in all cases: cell-based
[1] = tested on: A. baumannii ATCC 19606; conditions: Acinetobacter baumannii, ATCC19606; MHB; read-out: Minimum Inhibitory Concentration, A. baumannii ATCC 19606
Procedure, shortened: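 Per CLSI broth microdilution, colonies were grown 3-5 h at 37° C in cation-adjusted Mueller Hinton broth, then diluted to a starting inoculum of 2-8×10^5 CFU/mL against 2-fold serial compound dilutions. Plates were incubated 16-20 h at 37° C, and MIC was read visually as the lowest concentration with no growth.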

[2] = tested on: E. coli 901C; conditions: Escherichia coli; E. coli 901C (hyper-permeable); MHB; read-out: Minimum Inhibitory Concentration, E. coli 901C
Procedure, shortened: (§1)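 CLSI microdilution; CAMHB; inoculum 2-8×10^5 CFU/mL from 3-5 h 37° C culture; 2-fold compound series; 16-20 h, 37° C; MIC = lowest well without visible growth.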

[3] = tested on: E. coli AG100A; conditions: Escherichia coli, read-out: Minimum Inhibitory Concentration, E. coli AG100A
Procedure, shortened: as §1

[4] = tested on: E. coli AG100; conditions: Escherichia coli; E. coli AG100 (wild-type parent); MHB; read-out: Minimum Inhibitory Concentration, E. coli AG100
Procedure, shortened: as §1

[5] = tested on: E. coli ATCC 25922; conditions: Escherichia coli, ATCC25922; E. coli ATCC 25922; MHB; read-out: Minimum Inhibitory Concentration, E. coli 25922
Procedure, shortened: as §1

[6] = tested on: E. coli D22; conditions: Escherichia coli; E. coli D22 (hyper-permeable); MHB; read-out: Minimum Inhibitory Concentration, E. coli D22
Procedure, shortened: as §1

[7] = tested on: K. pneumoniae 848844 producing SHV-11 and KPC-2; conditions: Klebsiella pneumoniae, read-out: Minimum Inhibitory Concentration, K. pneumoniae 848844
Procedure, shortened: as §1

[8] = tested on: K. pneumoniae SI-117 producing VIM-1; conditions: Klebsiella pneumoniae, read-out: Minimum Inhibitory Concentration, K. pneumoniae SI-117
Procedure, shortened: as §1

[9] = tested on: K. pneumoniae UMM producing SHV-5 and KPC-2; conditions: Klebsiella pneumoniae, read-out: Minimum Inhibitory Concentration, K. pneumoniae UMM
Procedure, shortened: as §1

[10] = tested on: P. aeruginosa (ΔmexAB-oprM); conditions: Pseudomonas aeruginosa, read-out: Minimum Inhibitory Concentration, P. aeruginosa ΔmexAB-OprM
Procedure, shortened: as §1

[11] = tested on: P. aeruginosa ATCC 27853; conditions: Pseudomonas aeruginosa, ATCC27853; MHB; read-out: Minimum Inhibitory Concentration, P. aeruginosa ATCC 27853
Procedure, shortened: as §1

[12] = tested on: P. aeruginosa ATCC 35151; conditions: Pseudomonas aeruginosa, ATCC35151; MHB; hyper-permeable strain; read-out: Minimum Inhibitory Concentration, P. aeruginosa ATCC 35151
Procedure, shortened: as §1

SMILES | MIC [1] [µg/mL] | MIC [2] [µg/mL] | MIC [3] [µg/mL] | MIC [4] [µg/mL] | MIC [5] [µg/mL] | MIC [6] [µg/mL] | MIC [7] [µg/mL] | MIC [8] [µg/mL] | MIC [9] [µg/mL] | MIC [10] [µg/mL] | MIC [11] [µg/mL] | MIC [12] [µg/mL]
NCCN1CCN(C(=O)N[C@@H](C(=O)N[C@H]2Cc3cccc(C(=O)O)c3OB2O)c2cc(F)c(O)c(F)c2F)C(=O)C1=O (single isomer, unassigned) [Example 168] | > 128 | < 0.25 | 0.5 to 1 (≈ 0.843 to 1.69 µM) | 8 to 16 (≈ 13.5 to 27 µM) | 8 to 16 (≈ 13.5 to 27 µM) | 0.5 to 1 (≈ 0.843 to 1.69 µM) | 32 to 64 (≈ 53.9 to 108 µM) | 32 to 64 (≈ 53.9 to 108 µM) | 8 to 16 (≈ 13.5 to 27 µM) | 2 to 4 (≈ 3.37 to 6.74 µM) | 32 to 64 (≈ 53.9 to 108 µM) | < 0.25
NCCN1CCN(C(=O)N[C@H](C(=O)N[C@H]2Cc3cccc(C(=O)O)c3OB2O)c2ccc(O)c(F)c2F)C(=O)C1=O (single isomer, unassigned) [Example 169] | > 128 | 2 to 4 (≈ 3.48 to 6.95 µM) | 32 to 64 (≈ 55.6 to 111 µM) | 32 to 64 (≈ 55.6 to 111 µM) | 8 to 16 (≈ 13.9 to 27.8 µM) | 32 to 64 (≈ 55.6 to 111 µM) | > 128 | > 128 | > 128 | 32 to 64 (≈ 55.6 to 111 µM) | > 128 | 2 to 4 (≈ 3.48 to 6.95 µM)
NCCN1CCN(C(=O)N[C@@H](C(=O)N[C@H]2Cc3cccc(C(=O)O)c3OB2O)c2ccc(O)c(F)c2F)C(=O)C1=O (single isomer, unassigned) [Example 170] | > 128 | 0.5 to 1 (≈ 0.869 to 1.74 µM) | 2 to 4 (≈ 3.48 to 6.95 µM) | 8 to 16 (≈ 13.9 to 27.8 µM) | 8 to 16 (≈ 13.9 to 27.8 µM) | 2 to 4 (≈ 3.48 to 6.95 µM) | 32 to 64 (≈ 55.6 to 111 µM) | 32 to 64 (≈ 55.6 to 111 µM) | 8 to 16 (≈ 13.9 to 27.8 µM) | 2 to 4 (≈ 3.48 to 6.95 µM) | 32 to 64 (≈ 55.6 to 111 µM) | < 0.25
NS(=O)(=O)c1cccc(C(NC(=O)N2CCN(CCF)C(=O)C2=O)C(=O)N[C@H]2Cc3cccc(C(=O)O)c3OB2O)c1 (stereo partly drawn) [Example 100, (3R)-3-(2-(4-(2-fluoroethyl)-2,3-dioxopiperazine-1-carboxamido)-2-(3-sulfamoylphenyl)acetamido)-2-hydroxy-3,4-dihydro-2H-benzo[e][1,2]oxaborinine-8-carboxylic acid] | > 128 | < 0.25 | 2 to 4 (≈ 3.3 to 6.61 µM) | 32 to 64 (≈ 52.9 to 106 µM) | 32 to 64 (≈ 52.9 to 106 µM) | 2 to 4 (≈ 3.3 to 6.61 µM) | 32 to 64 (≈ 52.9 to 106 µM) | 32 to 64 (≈ 52.9 to 106 µM) | 32 to 64 (≈ 52.9 to 106 µM) | 8 to 16 (≈ 13.2 to 26.4 µM) | > 128 | 2 to 4 (≈ 3.3 to 6.61 µM)
CCN1CCN(C(=O)NC(C(=O)N[C@H]2Cc3cccc(C(=O)O)c3OB2O)c2cc(Cl)c(O)cc2F)C(=O)C1=O (stereo partly drawn) [Example 101, (3R)-3-(2-(5-chloro-2-fluoro-4-hydroxyphenyl)-2-(4-ethyl-2,3-dioxopiperazine-1-carboxamido)acetamido)-2-hydroxy-3,4-dihydro-2H-benzo[e][1,2]oxaborinine-8-carboxylic acid] | > 128 | < 0.25 | 2 to 4 (≈ 3.47 to 6.94 µM) | 32 to 64 (≈ 55.5 to 111 µM) | 32 to 64 (≈ 55.5 to 111 µM) | 2 to 4 (≈ 3.47 to 6.94 µM) | > 128 | > 128 | 32 to 64 (≈ 55.5 to 111 µM) | 8 to 16 (≈ 13.9 to 27.7 µM) | > 128 | 0.5 to 1 (≈ 0.867 to 1.73 µM)
CCN1CCN(C(=O)NC(C(=O)N[C@H]2Cc3cccc(C(=O)O)c3OB2O)c2cc(F)c(O)cc2Cl)C(=O)C1=O (stereo partly drawn) [Example 103, (3R)-3-(2-(2-chloro-5-fluoro-4-hydroxyphenyl)-2-(4-ethyl-2,3-dioxopiperazine-1-carboxamido)acetamido)-2-hydroxy-3,4-dihydro-2H-benzo[e][1,2]oxaborinine-8-carboxylic acid] | > 128 | < 0.25 | 2 to 4 (≈ 3.47 to 6.94 µM) | 32 to 64 (≈ 55.5 to 111 µM) | 32 to 64 (≈ 55.5 to 111 µM) | 2 to 4 (≈ 3.47 to 6.94 µM) | > 128 | > 128 | 32 to 64 (≈ 55.5 to 111 µM) | 8 to 16 (≈ 13.9 to 27.7 µM) | > 128 | 2 to 4 (≈ 3.47 to 6.94 µM)
CCN1CCN(C(=O)NC(C(=O)N[C@H]2Cc3cccc(C(=O)O)c3OB2O)c2cc(F)c(O)cc2F)C(=O)C1=O (stereo partly drawn) [Example 104, (3R)-3-(2-(2,5-difluoro-4-hydroxyphenyl)-2-(4-ethyl-2,3-dioxopiperazine-1-carboxamido)acetamido)-2-hydroxy-3,4-dihydro-2H-benzo[e][1,2]oxaborinine-8-carboxylic acid] | > 128 | < 0.25 | 2 to 4 (≈ 3.57 to 7.14 µM) | 32 to 64 (≈ 57.1 to 114 µM) | 32 to 64 (≈ 57.1 to 114 µM) | 2 to 4 (≈ 3.57 to 7.14 µM) | > 128 | 32 to 64 (≈ 57.1 to 114 µM) | 32 to 64 (≈ 57.1 to 114 µM) | 8 to 16 (≈ 14.3 to 28.6 µM) | > 128 | 2 to 4 (≈ 3.57 to 7.14 µM)
CCN1CCN(C(=O)NC(C(=O)N[C@H]2Cc3cccc(C(=O)O)c3OB2O)c2c(F)c(O)cc(O)c2F)C(=O)C1=O (stereo partly drawn) [Example 106, (3R)-3-(2-(2,6-difluoro-3,5-dihydroxyphenyl)-2-(4-ethyl-2,3-dioxopiperazine-1-carboxamido)acetamido)-2-hydroxy-3,4-dihydro-2H-benzo[e][1,2]oxaborinine-8-carboxylic acid] | > 128 | 2 to 4 (≈ 3.47 to 6.94 µM) | 32 to 64 (≈ 55.5 to 111 µM) | > 128 | > 128 | 8 to 16 (≈ 13.9 to 27.8 µM) | > 128 | > 128 | > 128 | 8 to 16 (≈ 13.9 to 27.8 µM) | > 128 | 2 to 4 (≈ 3.47 to 6.94 µM)
CCN1CCN(C(=O)NC(C(=O)N[C@H]2Cc3cccc(C(=O)O)c3OB2O)c2cccc(CNS(N)(=O)=O)c2)C(=O)C1=O (stereo partly drawn) [Example 107, (3R)-3-(2-(4-ethyl-2,3-dioxopiperazine-1-carboxamido)-2-(3-((sulfamoylamino)methyl)phenyl)acetamido)-2-hydroxy-3,4-dihydro-2H-benzo[e][1,2]oxaborinine-8-carboxylic acid] | > 128 | 0.5 to 1 (≈ 0.811 to 1.62 µM) | 2 to 4 (≈ 3.24 to 6.49 µM) | > 128 | 32 to 64 (≈ 51.9 to 104 µM) | 8 to 16 (≈ 13 to 26 µM) | > 128 | > 128 | > 128 | 8 to 16 (≈ 13 to 26 µM) | > 128 | 8 to 16 (≈ 13 to 26 µM)
CCN1CCN(C(=O)NC(C(=O)N[C@H]2Cc3cccc(C(=O)O)c3OB2O)c2cccc(CN)c2)C(=O)C1=O (stereo partly drawn) [Example 108, (3R)-3-(2-(3-(aminomethyl)phenyl)-2-(4-ethyl-2,3-dioxopiperazine-1-carboxamido)acetamido)-2-hydroxy-3,4-dihydro-2H-benzo[e][1,2]oxaborinine-8-carboxylic acid] | > 128 | 2 to 4 (≈ 3.72 to 7.44 µM) | 2 to 4 (≈ 3.72 to 7.44 µM) | 32 to 64 (≈ 59.6 to 119 µM) | 8 to 16 (≈ 14.9 to 29.8 µM) | 8 to 16 (≈ 14.9 to 29.8 µM) | > 128 | 32 to 64 (≈ 59.6 to 119 µM) | 32 to 64 (≈ 59.6 to 119 µM) | 32 to 64 (≈ 59.6 to 119 µM) | > 128 | 8 to 16 (≈ 14.9 to 29.8 µM)
NCCN1CCN(C(=O)NC(C(=O)N[C@H]2Cc3cccc(C(=O)O)c3OB2O)c2cc(F)c(O)cc2Cl)C(=O)C1=O (stereo partly drawn) [Example 109, (3R)-3-(2-(4-(2-aminoethyl)-2,3-dioxopiperazine-1-carboxamido)-2-(2-chloro-5-fluoro-4-hydroxyphenyl)acetamido)-2-hydroxy-3,4-dihydro-2H-benzo[e][1,2]oxaborinine-8-carboxylic acid] | > 128 | 2 to 4 (≈ 3.38 to 6.76 µM) | 8 to 16 (≈ 13.5 to 27 µM) | > 128 | 32 to 64 (≈ 54.1 to 108 µM) | 8 to 16 (≈ 13.5 to 27 µM) | > 128 | > 128 | 32 to 64 (≈ 54.1 to 108 µM) | 8 to 16 (≈ 13.5 to 27 µM) | > 128 | 2 to 4 (≈ 3.38 to 6.76 µM)
CCN1CCN(C(=O)NC(C(=O)N[C@H]2Cc3cccc(C(=O)O)c3OB2O)c2cncc(O)c2)C(=O)C1=O (stereo partly drawn) [Example 112, (3R)-3-(2-(4-ethyl-2,3-dioxopiperazine-1-carboxamido)-2-(5-hydroxypyridin-3-yl)acetamido)-2-hydroxy-3,4-dihydro-2H-benzo[e][1,2]oxaborinine-8-carboxylic acid] | > 128 | 0.5 to 1 (≈ 0.952 to 1.9 µM) | 2 to 4 (≈ 3.81 to 7.61 µM) | 32 to 64 (≈ 60.9 to 122 µM) | 32 to 64 (≈ 60.9 to 122 µM) | 2 to 4 (≈ 3.81 to 7.61 µM) | > 128 | > 128 | 32 to 64 (≈ 60.9 to 122 µM) | 8 to 16 (≈ 15.2 to 30.5 µM) | > 128 | 2 to 4 (≈ 3.81 to 7.61 µM)
CCN1CCN(C(=O)NC(C(=O)N[C@H]2Cc3cccc(C(=O)O)c3OB2O)c2cccc(C(=O)O)c2)C(=O)C1=O (stereo partly drawn) [Example 113, (3R)-3-(2-(3-carboxyphenyl)-2-(4-ethyl-2,3-dioxopiperazine-1-carboxamido)acetamido)-2-hydroxy-3,4-dihydro-2H-benzo[e][1,2]oxaborinine-8-carboxylic acid] | > 128 | < 0.25 | 2 to 4 (≈ 3.62 to 7.24 µM) | 32 to 64 (≈ 57.9 to 116 µM) | 32 to 64 (≈ 57.9 to 116 µM) | 2 to 4 (≈ 3.62 to 7.24 µM) | > 128 | > 128 | 32 to 64 (≈ 57.9 to 116 µM) | 8 to 16 (≈ 14.5 to 29 µM) | > 128 | 0.5 to 1 (≈ 0.905 to 1.81 µM)

From patent publication US20230114728A1 (Venatorx Pharmaceuticals, Inc., priority 2019, published 2023)
